Measured values published in patent US7598245B2 (Vertex Pharmaceuticals Incorporated, priority 2003, dated 2009).

Legend:
Type in all cases: biochemical
CDK-2/Cyclin A = target: T1, CDK-2/Cyclin A (Homo sapiens, UniProt P24941); assay: Inhibition of CDK-2, coupled enzyme assay; details: 100 μM ATP, 30° C.
T1 construct: 25 nM CDK-2/Cyclin A
Method: Compounds are screened for their ability to inhibit CDK-2/Cyclin A using a standard coupled enzyme assay [Fox et al. Protein Sci. 1998, 7, 2249]. Reactions were carried out in 100 mM HEPES (pH 7.5), 10 mM MgCl2, 25 mM NaCl, 1 mM DTT and 1.5% DMSO. Final substrate concentrations in the assay are 100 μM ATP (Sigma chemicals) and 100 μM peptide (American Peptide, Sunnyvale, Calif.). Assays are carried out at 30° C. and 25 nM CDK-2/Cyclin A. Final concentrations of the components of the coupled enzyme system are 2.5 mM phosphoenolpyruvate, 350 μM NADH, 30 μg/ml pyruvate kinase and 10 μg/ml lactate dehydrogenase.
An assay stock buffer solution is prepared containing all of the reagents listed above, with the exception of CDK-2/Cyclin A, DTT and the test compound of interest. 56 μl of the test reaction is placed in a 384 well plate followed by addition of 1 μl of 2 mM DMSO stock containing the test compound (final compound concentration 30 μM). The plate is preincubated for ˜10 minutes at 30° C. and the reaction initiated by addition of 10 μl of enzyme (final concentration 25 nM). Rates of reaction are obtained using a BioRad Ultramark plate reader (Hercules, Calif.) over a 5 minute read time at 30° C. Ki values are determined according to standard methods.

JAK-3 = target: T2, JAK-3 (Homo sapiens, UniProt P52333); assay: JAK3 inhibition assay (ELISA, Poly (Glu, Ala, Tyr) coated plates); details: 2 μM ATP
T2 sequence (P52333 1-1124): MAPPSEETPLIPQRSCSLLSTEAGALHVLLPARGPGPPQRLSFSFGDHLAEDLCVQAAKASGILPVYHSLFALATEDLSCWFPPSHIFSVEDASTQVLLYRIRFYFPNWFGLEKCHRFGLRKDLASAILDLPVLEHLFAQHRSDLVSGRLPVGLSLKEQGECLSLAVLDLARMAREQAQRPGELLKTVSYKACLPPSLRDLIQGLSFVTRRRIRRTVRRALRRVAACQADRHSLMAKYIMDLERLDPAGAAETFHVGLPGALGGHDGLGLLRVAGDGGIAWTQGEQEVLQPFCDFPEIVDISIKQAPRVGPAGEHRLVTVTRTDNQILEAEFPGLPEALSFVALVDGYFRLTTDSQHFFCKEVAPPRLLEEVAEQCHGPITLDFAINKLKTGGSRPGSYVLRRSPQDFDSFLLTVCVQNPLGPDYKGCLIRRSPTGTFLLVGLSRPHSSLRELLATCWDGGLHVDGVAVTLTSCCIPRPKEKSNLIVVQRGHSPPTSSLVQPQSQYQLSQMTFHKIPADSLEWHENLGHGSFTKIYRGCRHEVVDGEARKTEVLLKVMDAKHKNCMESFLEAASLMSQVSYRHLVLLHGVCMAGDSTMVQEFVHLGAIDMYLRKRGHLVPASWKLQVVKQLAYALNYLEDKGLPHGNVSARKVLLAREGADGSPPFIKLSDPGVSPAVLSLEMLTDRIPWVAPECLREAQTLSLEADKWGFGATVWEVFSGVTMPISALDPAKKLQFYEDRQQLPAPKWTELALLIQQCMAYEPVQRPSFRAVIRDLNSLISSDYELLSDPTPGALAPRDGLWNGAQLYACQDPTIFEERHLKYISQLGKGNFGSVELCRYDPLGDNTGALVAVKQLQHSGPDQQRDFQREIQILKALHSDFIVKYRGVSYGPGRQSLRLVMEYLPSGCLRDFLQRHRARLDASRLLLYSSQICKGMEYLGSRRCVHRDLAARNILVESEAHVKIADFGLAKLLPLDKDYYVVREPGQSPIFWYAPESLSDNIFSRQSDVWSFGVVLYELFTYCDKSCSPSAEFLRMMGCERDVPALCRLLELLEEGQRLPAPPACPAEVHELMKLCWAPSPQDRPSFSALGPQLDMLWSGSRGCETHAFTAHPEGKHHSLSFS
Method: Compound inhibition of JAK was assayed by the method described by G. R. Brown, et al, Bioorg. Med. Chem. Lett. 2000, vol. 10, pp 575-579 in the following manner. Into Maxisorb plates, previously coated at 4° C. with Poly (Glu, Ala, Tyr) 6:3:1 then washed with phosphate buffered saline 0.05% and Tween-(PBST), was added 2 μM ATP, 5 mM MgCl2, and a solution of compound in DMSO. The reaction was started with JAK enzyme and the plates incubated for 60 minutes at 30° C. The plates were then washed with PBST, 100 μL HRP-Conjugated 4G10 antibody was added, and the plate incubated for 90 minutes at 30° C. The plate was again washed with PBST, 100 μL TMB solution is added, and the plates were incubated for another 30 minutes at 30° C. Sulfuric acid (100 μL of 1M) was added to stop the reaction and the plate is read at 450 nm to obtain the optical densities for analysis to determine Ki values.

KDR = KDR (Homo sapiens, UniProt P35968); assay: Inhibition of KDR, coupled enzyme assay; details: 300 μM ATP, 37° C.
Method: Compounds were screened for their ability to inhibit KDR using a standard coupled enzyme assay (Fox et al., Protein Sci., (1998) 7, 2249). Assays were carried out in a mixture of 200 mM HEPES 7.5, 10 mM MgCl2, 25 mM NaCl, 1 mM DTT and 1.5% DMSO. Final substrate concentrations in the assay were 300 μM ATP (Sigma Chemicals) and 10 μM poly E4Y (Sigma). Assays were carried out at 37° C. and 30 nM KDR. Final concentrations of the components of the coupled enzyme system were 2.5 mM phosphoenolpyruvate, 200 μM NADH, 30 μg/ML pyruvate kinase and 10 μg/ml lactate dehydrogenase.
An assay stock buffer solution was prepared containing all of the reagents listed above, with the exception of ATP and the test compound of interest. 177 μl of the stock solution was placed in a 96 well plate followed by addition of 3 μl of 2 mM DMSO stock containing the test compound (final compound concentration 30 μM). The plate was preincubated for about 10 minutes at 37° C. and the reaction initiated by addition of 20 μl of ATP (final concentration 300 μM). Rates of reaction were obtained using a Molecular Devices plate reader (Sunnyvale, Calif.) over a 5 minute read time at 37° C.

KDR, sequence (P35968 20-1356): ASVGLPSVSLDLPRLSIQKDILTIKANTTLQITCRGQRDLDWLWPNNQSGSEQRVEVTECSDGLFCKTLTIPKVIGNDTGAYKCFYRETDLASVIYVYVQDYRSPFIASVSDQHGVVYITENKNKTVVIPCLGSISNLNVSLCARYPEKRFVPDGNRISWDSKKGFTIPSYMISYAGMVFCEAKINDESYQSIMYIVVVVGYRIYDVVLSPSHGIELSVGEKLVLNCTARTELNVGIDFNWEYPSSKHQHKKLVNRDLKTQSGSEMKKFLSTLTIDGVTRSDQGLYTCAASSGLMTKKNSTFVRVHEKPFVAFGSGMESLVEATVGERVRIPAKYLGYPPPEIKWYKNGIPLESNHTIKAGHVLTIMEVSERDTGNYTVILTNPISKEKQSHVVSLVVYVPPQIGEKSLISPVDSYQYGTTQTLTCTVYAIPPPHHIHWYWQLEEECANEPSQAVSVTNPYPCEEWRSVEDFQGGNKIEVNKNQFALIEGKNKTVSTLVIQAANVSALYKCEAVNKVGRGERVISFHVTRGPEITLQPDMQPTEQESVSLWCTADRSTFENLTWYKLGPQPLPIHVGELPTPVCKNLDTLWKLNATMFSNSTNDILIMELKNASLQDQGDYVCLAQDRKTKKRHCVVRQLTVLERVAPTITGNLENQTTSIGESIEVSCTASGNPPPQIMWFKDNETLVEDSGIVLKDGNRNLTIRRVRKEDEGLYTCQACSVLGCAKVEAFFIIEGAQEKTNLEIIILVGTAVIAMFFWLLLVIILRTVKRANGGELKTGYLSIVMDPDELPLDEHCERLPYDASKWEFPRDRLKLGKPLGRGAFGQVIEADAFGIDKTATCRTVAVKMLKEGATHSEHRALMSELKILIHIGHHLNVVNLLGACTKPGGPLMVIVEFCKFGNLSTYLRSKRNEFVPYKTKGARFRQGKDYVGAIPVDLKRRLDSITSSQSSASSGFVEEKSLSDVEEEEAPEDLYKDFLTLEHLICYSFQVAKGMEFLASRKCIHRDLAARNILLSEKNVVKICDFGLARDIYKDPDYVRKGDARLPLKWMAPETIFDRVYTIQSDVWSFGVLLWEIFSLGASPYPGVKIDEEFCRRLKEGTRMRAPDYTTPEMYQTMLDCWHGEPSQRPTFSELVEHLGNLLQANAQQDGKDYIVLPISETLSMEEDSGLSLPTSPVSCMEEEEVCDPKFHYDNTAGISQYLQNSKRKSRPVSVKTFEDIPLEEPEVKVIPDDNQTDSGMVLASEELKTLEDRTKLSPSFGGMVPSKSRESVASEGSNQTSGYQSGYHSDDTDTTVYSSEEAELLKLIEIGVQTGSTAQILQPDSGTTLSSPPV

| Structure (SMILES) | Ki (CDK-2/Cyclin A) [µM] | Ki (JAK-3) [µM] | Ki (KDR) [µM] |
| --- | --- | --- | --- |
| COc1cc(Nc2ncn(-c3ccccc3)n2)cc(OC)c1OC [Compound I-42] | > 1 | 0.01 to 1 | – |
| COc1cc(Nc2ncn(-c3ccc(C#N)cc3)n2)cc(OC)c1OC [Compound I-43] | 0.5 to 1 | 0.01 to 1 | – |
| c1ccc(-n2cnc(Nc3ccc4c(c3)OCCO4)n2)cc1 [Compound I-44] | > 1 | > 1 | – |
| CCOc1cccc(Nc2ncn(-c3ccccc3)n2)c1 [Compound I-45] | > 1 | > 1 | – |
| CC(C)Oc1cccc(Nc2ncn(-c3ccccc3)n2)c1 [Compound I-46] | > 1 | > 1 | – |
| CCOc1ccc(Nc2ncn(-c3ccccc3)n2)cc1 [Compound I-47] | > 1 | > 1 | – |
| c1ccc(Nc2ncn(-c3ccnc(N4CCCCC4)c3)n2)cc1 [Compound I-49, phenyl-[1-(3,4,5,6-tetrahydro-2H-[1,2′]bipyridinyl-4′-yl)-1H-[1,2,4]triazol-3-yl]-amine] | < 0.5 | 0.01 to 1 | < 0.1 |
| c1ccc(Nc2ncn(-c3ccnc(NC4CCCCC4)c3)n2)cc1 [Compound I-50] | < 0.5 | 0.01 to 1 | 0.1 to 1 |
| CN(CCO)c1cc(-n2cnc(Nc3ccccc3)n2)ccn1 [Compound I-51] | < 0.5 | 0.01 to 1 | < 0.1 |
| c1ccc(Nc2ncn(-c3ccnc(N4CCCCCCC4)c3)n2)cc1 [Compound I-52] | < 0.5 | 0.01 to 1 | < 0.1 |
| CN(C)CCCN(C)c1cc(-n2cnc(Nc3ccccc3)n2)ccn1 [Compound I-53] | > 1 | > 1 | 0.1 to 1 |
| CCN(CCO)c1cc(-n2cnc(Nc3ccccc3)n2)ccn1 [Compound I-54] | < 0.5 | 0.01 to 1 | < 0.1 |
| CN(Cc1ccccc1)c1cc(-n2cnc(Nc3ccccc3)n2)ccn1 [Compound I-55] | < 0.5 | 0.01 to 1 | 0.1 to 1 |
| CC1CCCN1c1cc(-n2cnc(Nc3ccccc3)n2)ccn1 (centres unmarked) [Compound I-56] | < 0.5 | 0.01 to 1 | < 0.1 |
| CN(Cc1cccnc1)c1cc(-n2cnc(Nc3ccccc3)n2)ccn1 [Compound I-57] | < 0.5 | 0.01 to 1 | < 0.1 |
| CCCN(CCO)c1cc(-n2cnc(Nc3ccccc3)n2)ccn1 [Compound I-58] | < 0.5 | 0.01 to 1 | < 0.1 |
| COCCN(C)c1cc(-n2cnc(Nc3ccccc3)n2)ccn1 [Compound I-59, (2-methoxy-ethyl)-methyl-[4-(3-phenylamino-[1,2,4]triazol-1-yl)-pyridin-2-yl]-amine] | < 0.5 | 0.01 to 1 | < 0.1 |
| CCN(CC)CCNc1cc(-n2cnc(Nc3ccccc3)n2)ccn1 [Compound I-60] | > 1 | > 1 | > 1 |

| Structure (SMILES) | Ki (CDK-2/Cyclin A) [µM] | Ki (JAK-3) [µM] | Ki (KDR) [µM] |
| --- | --- | --- | --- |
| CN1C(C)(C)CC(Nc2cc(-n3cnc(Nc4ccccc4)n3)ccn2)CC1(C)C [Compound I-61] | 0.5 to 1 | > 1 | 0.1 to 1 |
| CC(C)CCN(C)c1cc(-n2cnc(Nc3ccccc3)n2)ccn1 [Compound I-62, methyl-(3-methyl-butyl)-[4-(3-phenylamino-[1,2,4]triazol-1-yl)-pyridin-2-yl]-amine] | < 0.5 | 0.01 to 1 | < 0.1 |
| O=c1[nH]c2ccccc2n1C1CCN(c2cc(-n3cnc(Nc4ccccc4)n3)ccn2)CC1 [Compound I-63] | > 1 | > 1 | > 1 |
| O=C(C1CCCO1)N1CCN(c2cc(-n3cnc(Nc4ccccc4)n3)ccn2)CC1 (centres unmarked) [Compound I-64] | > 1 | > 1 | > 1 |
| OC[C@H]1CCCN(c2cc(-n3cnc(Nc4ccccc4)n3)ccn2)C1 [Compound I-65] | < 0.5 | 0.01 to 1 | 0.1 to 1 |
| CC(=O)N1CCCN(c2cc(-n3cnc(Nc4ccccc4)n3)ccn2)CC1 [Compound I-66] | 0.5 to 1 | 0.01 to 1 | 0.1 to 1 |
| CCC(=O)N1CCCN(c2cc(-n3cnc(Nc4ccccc4)n3)ccn2)CC1 [Compound I-67] | > 1 | 0.01 to 1 | 0.1 to 1 |
| CCCC(=O)N1CCCN(c2cc(-n3cnc(Nc4ccccc4)n3)ccn2)CC1 [Compound I-68] | > 1 | 0.01 to 1 | > 1 |
| CC(C)C(=O)N1CCCN(c2cc(-n3cnc(Nc4ccccc4)n3)ccn2)CC1 [Compound I-69] | > 1 | > 1 | > 1 |
| CC(C)CC(=O)N1CCCN(c2cc(-n3cnc(Nc4ccccc4)n3)ccn2)CC1 [Compound I-70] | > 1 | > 1 | > 1 |
| COCC(=O)N1CCCN(c2cc(-n3cnc(Nc4ccccc4)n3)ccn2)CC1 [Compound I-71] | > 1 | 0.01 to 1 | 0.1 to 1 |
| N#CCC(=O)N1CCCN(c2cc(-n3cnc(Nc4ccccc4)n3)ccn2)CC1 [Compound I-72] | < 0.5 | 0.01 to 1 | 0.1 to 1 |
| c1ccc(Nc2ncn(-c3ccnc(N4CCCCCC4)c3)n2)cc1 [Compound I-73] | < 0.5 | < 0.01 | < 0.1 |
| CC(=O)N1[C@H](C)CN(c2cc(-n3cnc(Nc4ccccc4)n3)ccn2)C[C@@H]1C [Compound I-74] | < 0.5 | < 0.01 | < 0.1 |
| CCOC(=O)c1ccc(Nc2ncn(-c3ccnc(N4C[C@@H](C)N(C(C)=O)[C@@H](C)C4)c3)n2)cc1 [Compound I-75] | 0.5 to 1 | 0.01 to 1 | < 0.1 |
| CCOC(=O)c1ccc(Nc2ncn(-c3ccnc(N4CCCN(C(C)=O)CC4)c3)n2)cc1 [Compound I-76] | > 1 | 0.01 to 1 | 0.1 to 1 |
| CN1CCN(c2ccc(Nc3ncn(-c4ccccc4)n3)cn2)CC1 [Compound I-135] | > 1 | > 1 | – |
